Measurements published in ChEMBL document CHEMBL3588806, “Generation of Broad-Spectrum Antifungal Drug Candidates from the Natural Product Compound Aureobasidin A” (ACS Med Chem Lett, 2015).
≈ marks a conversion by molar mass, not a printed value. Starred links: 1 amine or outer side, 2 acyl side, 3 side chain; linkers in the order of their positions; H or OH if unused. Non-standard residues stand in square brackets, D forms with d. Residues, ends and D or L forms follow the SMILES beside them. NMePhe(3-(3-pyridyl)) = CN[C@@H](Cc1cccc(-c2cccnc2)c1)C(=O)O; X1 = CC[C@@H](C)[C@@H](O[*:1])C(=O)[*:2]; Hmp(2R,3S) = CC[C@H](C)[C@@H](O)C(=O)O; NMeVal(β-OH) = CN[C@H](C(=O)O)C(C)(C)O; NMeF = CN[C@@H](Cc1ccccc1)C(=O)O; aIle = CC[C@@H](C)[C@H](N)C(=O)O; NMeV = CN[C@H](C(=O)O)C(C)C

Columns and labels:
Candida albicans [1] = test: Antifungal activity against Candida albicans ATCC 24433 by broth dilution method; assay type: functional
Cryptococcus neoformans = test: Antifungal activity against Cryptococcus neoformans ATCC […] by broth dilution method; assay type: functional
Clavispora lusitaniae = test: Antifungal activity against Candida lusitaniae ATCC 66035 by broth dilution method; assay type: functional
Aspergillus niger [2] = test: Antifungal activity against Aspergillus niger ATCC 64028 by broth dilution method; assay type: functional
Aspergillus clavatus = test: Antifungal activity against Aspergillus clavatus ATCC 10058 by broth dilution method; assay type: functional
Candida albicans [3] = test: Antifungal activity against Candida albicans ATCC MYA-2732 by broth dilution method; assay type: functional
[4] = system: Meyerozyma guilliermondii; test: Antifungal activity against Candida guilliermondii ATCC 34134 by broth dilution method; assay type: functional
Candida albicans [5] = test: Antifungal activity against Candida albicans ATCC 90028 by broth dilution method; assay type: functional
Aspergillus flavus [6] = test: Antifungal activity against Aspergillus flavus ATCC 204304 by broth dilution method; assay type: functional
Aspergillus ochraceus = test: Antifungal activity against Aspergillus ochraceus ATCC 96919 by broth dilution method; assay type: functional
Candida albicans [7] = test: Antifungal activity against Candida albicans by broth dilution method; assay type: functional
[8] = system: Trichophyton mentagrophytes; test: Antifungal activity against Trichophyton mentagrophytes ATCC MYA-4439 by broth dilution method; assay type: functional
Aspergillus nidulans = test: Antifungal activity against Emericella nidulans ATCC 96921 by broth dilution method; assay type: functional
Candida parapsilosis [9] = test: Antifungal activity against Candida parapsilosis ATCC 22019 by broth dilution method; assay type: functional; conditions: Lodderomyces parapsilosis
Aspergillus fumigatus [10] = test: Antifungal activity against Aspergillus fumigatus ATCC MYA-32626 by broth dilution method; assay type: functional
Aspergillus fumigatus [11] = test: Antifungal activity against Aspergillus fumigatus by broth dilution method; assay type: functional
[12] = system: Trichophyton mentagrophytes; test: Antifungal activity against Trichophyton mentagrophytes ATCC 28185 by broth dilution method; assay type: functional
Trichophyton rubrum = test: Antifungal activity against Trichophyton rubrum ATCC MYA-4438 by broth dilution method; assay type: functional
Rhizopus arrhizus = test: Antifungal activity against Rhizopus oryzae ATCC 11886 by broth dilution method; assay type: functional
Pichia kudriavzevii [13] = test: Antifungal activity against Candida krusei ATCC 14243 by broth dilution method; assay type: functional
Aspergillus flavus [14] = test: Antifungal activity against Aspergillus flavus ATCC 64025 by broth dilution method; assay type: functional
Candida parapsilosis [15] = test: Antifungal activity against Candida parapsilosis ATCC 90018 by broth dilution method; assay type: functional; conditions: Lodderomyces parapsilosis
Sporothrix schenckii = test: Antifungal activity against Sporothrix schenckii ATCC 14284 by broth dilution method; assay type: functional
Candida tropicalis [16] = test: Antifungal activity against Candida tropicalis ATCC 750 by broth dilution method; assay type: functional
Candida albicans [17] = test: Antifungal activity against Candida albicans ATCC 10231 by broth dilution method; assay type: functional
[18] = Ratio of MIC for Aspergillus fumigatus to MIC for Candida albicans; assay type: functional
Aspergillus flavus [19] = test: Antifungal activity against Aspergillus flavus ATCC 22546 by broth dilution method; assay type: functional
Aspergillus candidus = test: Antifungal activity against Aspergillus candidus ATCC 13686 by broth dilution method; assay type: functional
Nakaseomyces glabratus = test: Antifungal activity against Candida glabrata ATCC 90030 by broth dilution method; assay type: functional
Pichia kudriavzevii [20] = test: Antifungal activity against Issatchenkia orientalis ATCC 6258 by broth dilution method; assay type: functional
Saccharomyces cerevisiae = test: Antifungal activity against Saccharomyces cerevisiae ATCC 7754 by broth dilution method; assay type: functional
Candida albicans [21] = test: Antifungal activity against Candida albicans ATCC 204276 by broth dilution method; assay type: functional
Aspergillus niger [22] = test: Antifungal activity against Aspergillus niger ATCC 16888 by broth dilution method; assay type: functional
Candida tropicalis [23] = test: Antifungal activity against Candida tropicalis ATCC 90874 by broth dilution method; assay type: functional
Candida albicans [24] = test: Antifungal activity against Candida albicans ATCC 90029 by broth dilution method; assay type: functional
Fusarium oxysporum = test: Antifungal activity against Fusarium oxysporum ATCC 48112 by broth dilution method; assay type: functional
Aspergillus fumigatus [25] = test: Antifungal activity against Aspergillus fumigatus ATCC 20435 by broth dilution method; assay type: functional
[26] = Time dependent inhibition of Candida albicans ATCC 38247 membrane inositol phosphorylceramide synthase using ceramide as substrate

Structure (SMILES) | MIC (Candida albicans [1]) [µg/mL] | MIC (Cryptococcus neoformans) [µg/mL] | MIC (Clavispora lusitaniae) [µg/mL] | MIC (Aspergillus niger [2]) [µg/mL] | MIC (Aspergillus clavatus) [µg/mL] | MIC (Candida albicans [3]) [µg/mL] | MIC [4] [µg/mL] | MIC (Candida albicans [5]) [µg/mL] | MIC (Aspergillus flavus [6]) [µg/mL] | MIC (Aspergillus ochraceus) [µg/mL] | MIC (Candida albicans [7]) [µg/mL] | MIC [8] [µg/mL] | MIC (Aspergillus nidulans) [µg/mL] | MIC (Candida parapsilosis [9]) [µg/mL] | MIC (Aspergillus fumigatus [10]) [µg/mL] | MIC (Aspergillus fumigatus [11]) [µg/mL] | MIC [12] [µg/mL] | MIC (Trichophyton rubrum) [µg/mL] | MIC (Rhizopus arrhizus) [µg/mL] | MIC (Pichia kudriavzevii [13]) [µg/mL] | other results
CC[C@H](C)[C@@H]1NC(=O)[C@@H]2CCCN2C(=O)[C@H](Cc2cccc(-c3cccnc3)c2)N(C)C(=O)[C@H](Cc2ccccc2)NC(=O)[C@H](C(C)C)N(C)C(=O)[C@@H]([C@@H](C)CC)OC(=O)[C@H](C(C)(C)O)N(C)C(=O)[C@H](CC(C)C)NC(=O)[C@H](C(C)C)N(C)C1=O (cyclo(F[NMePhe(3-(3-pyridyl))]PI[NMeV]L[NMeVal(β-OH)][Hmp(2R,3S)][NMeV])) | 0.125 (≈ 0.106 µM) | 0.03 (≈ 0.0255 µM) | 0.125 (≈ 0.106 µM) | 0.03 (≈ 0.0255 µM) | 0.03 (≈ 0.0255 µM) | 0.03 (≈ 0.0255 µM) | 0.03 (≈ 0.0255 µM) | 0.015 (≈ 0.0127 µM) | 1 (≈ 0.849 µM) | 0.25 (≈ 0.212 µM) | < 0.05 | 0.5 (≈ 0.424 µM) | 0.125 (≈ 0.106 µM) | 0.06 (≈ 0.0509 µM) | 2 (≈ 1.7 µM) | < 0.94 | 1 (≈ 0.849 µM) | 2 (≈ 1.7 µM) | > 64 | 0.06 (≈ 0.0509 µM) | MIC (Aspergillus flavus [14]): 1 µg/mL (≈ 0.849 µM); MIC (Candida parapsilosis [15]): 0.03 µg/mL (≈ 0.0255 µM); MIC (Sporothrix schenckii): > 64 µg/mL; MIC (Candida tropicalis [16]): 0.03 µg/mL (≈ 0.0255 µM); MIC (Candida albicans [17]): 1 µg/mL (≈ 0.849 µM); Ratio [18]: > 10; MIC (Aspergillus flavus [19]): 2 µg/mL (≈ 1.7 µM); MIC (Aspergillus candidus): 0.008 µg/mL (≈ 0.00679 µM); MIC (Nakaseomyces glabratus): 0.03 µg/mL (≈ 0.0255 µM); MIC (Pichia kudriavzevii [20]): 0.06 µg/mL (≈ 0.0509 µM); MIC (Saccharomyces cerevisiae): 0.03 µg/mL (≈ 0.0255 µM); MIC (Candida albicans [21]): 0.03 µg/mL (≈ 0.0255 µM); MIC (Aspergillus niger [22]): 0.125 µg/mL (≈ 0.106 µM); MIC (Candida tropicalis [23]): 0.015 µg/mL (≈ 0.0127 µM); MIC (Candida albicans [24]): 0.5 µg/mL (≈ 0.424 µM); MIC (Fusarium oxysporum): > 64 µg/mL; MIC (Aspergillus fumigatus [25]): 1 µg/mL (≈ 0.849 µM)
C[C@@H]1[C@H](O)[C@@H](C)/C=C/C=C/C=C/C=C/C=C/C=C/C=C/[C@H](O[C@@H]2O[C@H](C)[C@@H](O)[C@H](N)[C@@H]2O)C[C@@H]2O[C@](O)(C[C@@H](O)C[C@@H](O)[C@H](O)CC[C@@H](O)C[C@@H](O)CC(=O)O[C@H]1C)C[C@H](O)[C@H]2C(=O)O [AMPHOTERICIN B] | 0.03 (≈ 0.0325 µM) | 0.015 (≈ 0.0162 µM) | 0.015 (≈ 0.0162 µM) | 0.015 (≈ 0.0162 µM) | 0.004 (≈ 0.00433 µM) | 0.06 (≈ 0.0649 µM) | 0.008 (≈ 0.00866 µM) | 0.03 (≈ 0.0325 µM) | 0.25 (≈ 0.271 µM) | 0.25 (≈ 0.271 µM) | – | 0.06 (≈ 0.0649 µM) | 1 (≈ 1.08 µM) | 0.125 (≈ 0.135 µM) | 0.25 (≈ 0.271 µM) | – | 0.06 (≈ 0.0649 µM) | 0.03 (≈ 0.0325 µM) | 0.03 (≈ 0.0325 µM) | 0.125 (≈ 0.135 µM) | MIC (Aspergillus flavus [14]): 0.5 µg/mL (≈ 0.541 µM); MIC (Candida parapsilosis [15]): 0.06 µg/mL (≈ 0.0649 µM); MIC (Sporothrix schenckii): 0.5 µg/mL (≈ 0.541 µM); MIC (Candida tropicalis [16]): 0.06 µg/mL (≈ 0.0649 µM); MIC (Candida albicans [17]): 0.03 µg/mL (≈ 0.0325 µM); MIC (Aspergillus flavus [19]): 0.25 µg/mL (≈ 0.271 µM); MIC (Aspergillus candidus): 0.03 µg/mL (≈ 0.0325 µM); MIC (Nakaseomyces glabratus): 0.03 µg/mL (≈ 0.0325 µM); MIC (Pichia kudriavzevii [20]): 0.125 µg/mL (≈ 0.135 µM); MIC (Saccharomyces cerevisiae): 0.06 µg/mL (≈ 0.0649 µM); MIC (Candida albicans [21]): 0.06 µg/mL (≈ 0.0649 µM); MIC (Aspergillus niger [22]): 0.03 µg/mL (≈ 0.0325 µM); MIC (Candida tropicalis [23]): 0.06 µg/mL (≈ 0.0649 µM); MIC (Candida albicans [24]): 0.03 µg/mL (≈ 0.0325 µM); MIC (Fusarium oxysporum): 1 µg/mL (≈ 1.08 µM); MIC (Aspergillus fumigatus [25]): 0.25 µg/mL (≈ 0.271 µM)
CC[C@@H](C)[C@@H]1NC(=O)[C@@H]2CCCN2C(=O)[C@H](Cc2ccccc2)N(C)C(=O)[C@H](Cc2ccccc2)NC(=O)[C@H](C(C)C)N(C)C(=O)[C@@H]([C@H](C)CC)OC(=O)[C@H](C(C)(C)O)N(C)C(=O)[C@H](CC(C)C)NC(=O)[C@H](C(C)C)N(C)C1=O [AUREOBASIDIN A] (cyclo(F[NMeF]P[aIle][NMeV]L[NMeVal(β-OH)][X1][NMeV])) | – | – | – | – | – | – | – | – | – | – | < 0.05 | – | – | – | – | > 25 | – | – | – | – | Ki [26]: 0.2 nM
